Marks after values point to notes of the source that are not given here. Positions of bridges follow the written chain, without caps; N, C: chain ends. Residues, ends and D or L forms follow the SMILES beside them. No end group written: not given here.
Legend:
recombinant human uPAR = target: T1, recombinant human uPAR (Homo sapiens, UniProt Q03405); assay: Microtitre plate solid phase ATF-ligand binding test; details: 0.6 ng ATF together with 15 μg synthetic peptide per ml; FIG. 2
T1 construct: made in house; host or cells: CHO cells
T1 sequence (Q03405 23-299 limits assumed): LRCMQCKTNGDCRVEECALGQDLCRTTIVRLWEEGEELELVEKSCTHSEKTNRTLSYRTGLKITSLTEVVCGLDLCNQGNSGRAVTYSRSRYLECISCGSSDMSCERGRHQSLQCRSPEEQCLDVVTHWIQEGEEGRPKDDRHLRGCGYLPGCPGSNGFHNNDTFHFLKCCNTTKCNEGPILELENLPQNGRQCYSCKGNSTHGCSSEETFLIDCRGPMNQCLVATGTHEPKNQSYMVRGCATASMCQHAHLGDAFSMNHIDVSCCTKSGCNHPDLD
Description: In addition to the flow cytometric analyses, a solid phase ATF-ligand binding test was carried out in order to examine the interactions of synthetic peptides with the uPAR. For this microtitre plates were coated with recombinant human uPAR from CHO cells (Wilhelm et al., FEBS Lett. 337 (1994), 131-134; Magdolen et al., Electrophoresis 16 (1995), 813-816) and the remaining protein-binding sites were saturated with 2% BSA (weight/vol). After incubation with the samples (0.6 ng ATF together with 15 μg synthetic peptide per ml) and several wash steps, the amount of ATF which had bound to the uPAR immobilized on the microtitre plate was determined using a biotinylated monoclonal mouse antibody against the kringle domain of ATF (No. 377, American Diagnostics, Greenwich, Conn., USA) and subsequent addition of avidin-peroxidase conjugate and 3,3′,5,5′-tetramethylbenzidine/[…] as a substrate for the peroxidase. The presence of synthetic peptides which compete with the ATF binding to uPAR reduces the conversion of the chromogenic substrate.
A series of peptides with variable sequence regions from the receptor binding region of uPA were synthesized and were increasingly shortened at the amino terminus starting with uPA10-32. The microtitre plate solid phase binding test described in 1.4 was used to determine the inhibitory capacity of these peptides.

[1] = Stability of binding activity after long storage in aqueous solution or repeated freeze/thaw cycles; type: physicochemical
[2] = system: human breast cancer cells MDA-MB-231; assay: Primary tumour growth of MDA-MB-231 cells injected into naked mice; type: in vivo, Balbc/3 naked mice; details: 10 mg/kg intraperitoneally twice weekly
Description: 6×10^6 human breast cancer cells MDA-MB-231 (Price et al., Cancer Res. 50 (1990), 717-721) in a total volume of 300 μl were injected into the right side of 4-6 week old Balbc/3 naked mice. Before injection the cancer cells were mixed with 200 μg of the cyclic uPA peptides cyclo^19,31uPA19-31 (SEQ ID NO: 3) and Cyclo^21,29[Cys21,29]uPA21-30 (SEQ ID NO: 4) in PBS, pH 7.4. Subsequently the mice were treated twice weekly intraperitoneally with the respective peptide at a dose of 10 mg/kg body weight (injection volume 300 μl). The volume of the primary tumours which occurred in the mice in cm^3 was determined after 1, 2, 3 and 5 weeks by measuring the two largest diameters. The control mice were administered PBS pH 7.4. Each group was composed of 5 mice. The results for the peptide cyclo^19,31uPA19-31 (SEQ ID NO: 3) are shown in Tab. 2.

[3] = target: T2, cell surface-associated uPAR (Homo sapiens, UniProt Q03405); assay: Flow cytometry: inhibition of binding of FITC-conjugated pro-uPA to cell surface-associated uPAR on PMA-stimulated U937 cells
T2 construct: source of cellular native uPAR; endogenous in cells; host or cells: U937 cells stimulated with PMA
T2 sequence (Q03405 23-305): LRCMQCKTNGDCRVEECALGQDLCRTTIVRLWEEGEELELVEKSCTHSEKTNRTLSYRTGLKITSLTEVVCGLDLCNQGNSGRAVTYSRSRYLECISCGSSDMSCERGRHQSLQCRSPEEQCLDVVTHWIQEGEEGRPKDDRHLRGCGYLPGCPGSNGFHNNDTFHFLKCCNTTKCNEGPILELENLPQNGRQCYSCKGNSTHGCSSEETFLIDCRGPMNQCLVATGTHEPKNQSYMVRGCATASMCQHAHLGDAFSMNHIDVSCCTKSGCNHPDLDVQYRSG
Description: The ability of the synthetic peptides to inhibit the uPA/uPAR interaction was determined by means of flow cytometry on a FACScan flow cytometer (Becton-Dickinson, Heidelberg, Germany) using the human promyeloid cell line U937 as a source of cellular native uPAR (Chuchulowski et al., Fibrinolysis 6, Suppl. 4 (1992), 95-102; Magdolen et al., (1996), supra). The U937 cells were stimulated with […] phorbol-12-myristate-13-acetate (PMA) for 48 h. After stimulation with PMA the U937 cells expressed considerable amounts of cell surface-associated uPAR.
The stimulated cells were treated for 1 min at room temperature with 50 mM glycine HCl, 0.1 NaCl, pH 3.6 in order to dissociate endogenous receptor-bound uPA. Subsequently the acidic buffer was neutralized with 0.5 M HEPES-100 mM NaCl, pH 7.5. […] Before the analysis, propidium iodide, a fluorescent dye which specifically binds double-stranded DNA, was added to each sample in order to determine the viability of the analysed U937 cells. […]
For this the purified peptides were analysed by mass spectroscopy, quantified by amino acid analysis and then tested by flow cytometry according to the method described in 1.3 for their ability to inhibit the binding of fluorescent-labelled pro-uPA to the uPA receptor on U937 cells. […]

Compound	inhibition of the binding of ATF to uPAR / uPAR binding capacity (recombinant human uPAR)	also measured
CC[C@H](C)[C@H](NC(=O)[C@H](CC(N)=O)NC(=O)[C@H](CO)NC(=O)[C@H](Cc1ccccc1)NC(=O)[C@H](Cc1ccc(O)cc1)NC(=O)[C@H](CCCCN)NC(=O)[C@H](CC(N)=O)NC(=O)[C@H](CO)NC(=O)[C@@H](NC(=O)[C@@H](N)CS)C(C)C)C(=O)N[C@@H](Cc1c[nH]cn1)C(=O)N[C@@H](Cc1c[nH]c2ccccc12)C(=O)N[C@@H](CS)C(=O)O [uPA19-31] (H-CVSNKYFSNIHWC-OH; N-terminus and C-terminus assumed)	higher affinity than the longer peptide uPA16-32	
uPA20-34: linear peptide from the receptor binding region of uPA, amino acids 20-34 (VSNKYFSNIHWCNCP)	does not bind at all	
cyclo^19-31uPA19-31: cyclic peptide uPA19-31 with an intramolecular disulfide bond between the cysteine residues at positions 19 and 31 (CVSNKYFSNIHWC; disulfide 1-13)	still able to inhibit the binding of uPA to the uPA receptor	stability of binding activity compared with linear peptide uPA19-31 [1]: significantly more stable; volume of the primary tumours ([2]; week 1): 0 cm^3; volume of the primary tumours ([2]; week 2): 0.086 ± 0.047 cm^3; volume of the primary tumours ([2]; week 3): 0.303 ± 0.129 cm^3; volume of the primary tumours ([2]; week 5, p = 0.02): 0.62 ± 0.21* cm^3
CC[C@H](C)[C@H](NC(=O)[C@H](CC(N)=O)NC(=O)[C@H](CO)NC(=O)[C@H](Cc1ccccc1)NC(=O)[C@H](Cc1ccc(O)cc1)NC(=O)[C@H](CCCCN)NC(=O)[C@H](CC(N)=O)NC(=O)[C@H](CO)NC(=O)[C@@H](NC(=O)[C@H](CS)NC(=O)[C@@H](NC(=O)CNC(=O)CN)[C@@H](C)O)C(C)C)C(=O)N[C@@H](Cc1c[nH]cn1)C(=O)N[C@@H](Cc1c[nH]c2ccccc12)C(=O)N[C@@H](CS)C(=O)N[C@@H](CC(N)=O)C(=O)O [uPA16-32] (H-GGTCVSNKYFSNIHWCN-OH; N-terminus assumed)	effectively inhibit	fold higher affinity to uPAR compared to uPA12-32 [C19A] and clone 20 peptide [3]: 4- to 5 fold; molar excess resulting in a 50% inhibition of the binding of uPA ([3]; FITC-conjugated pro-uPA): approximately 3,000 molar excess

Second part, led by results:

inhibition of the binding of ATF to uPAR / uPAR binding capacity (recombinant human uPAR)	Compound	also measured
effectively inhibit	uPA10-32: linear peptide from the receptor binding region of uPA, amino acids 10-32 (NCDCLNGGTCVSNKYFSNIHWCN)	
effectively inhibit	uPA14-32: linear peptide from the receptor binding region of uPA, amino acids 14-32 (LNGGTCVSNKYFSNIHWCN)	
effectively inhibit	uPA12-31: linear peptide from the receptor binding region of uPA, amino acids 12-31 as printed (DCLNGGTCVSNKYFSNIHWC)	

Reference: patent US6872702B1, “Inhibitors for urokinase receptor” (Wilex AG, priority 1997, dated 2005)
